Source: PubChem BioAssay (NCI)
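Grown in 96-well plates, cells were treated for 48 hours with each compound at five concentrations. Insufficient inhibition: endpoint recorded as highest concentration tested. TGI denotes the concentration required for complete inhibition of growth.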

Assays:
Assay in all cases: DTP human tumour cell line panel, 48 h
BT-549 breast = system: BT-549 breast
EKVX NSCLC = system: EKVX NSCLC
HCC-2998 colon = system: HCC-2998 colon
HCT-116 colon = system: HCT-116 colon
HL-60(TB) leukemia = system: HL-60(TB) leukemia
HS 578T breast = system: HS 578T breast
HT29 colon = system: HT29 colon
M14 melanoma = system: M14 melanoma
NCI-H460 lung = system: NCI-H460 lung
SK-MEL-28 melanoma = system: SK-MEL-28 melanoma

Structure (SMILES): NC(N)=NS(=O)(=O)c1ccc(NC(=O)c2ccc3nc4ccccc4c(Nc4ccc(S(N)(=O)=O)cc4)c3c2)cc1
- TGI (BT-549 breast): > 100 µM
- TGI (EKVX NSCLC): > 100 µM
- TGI (HCC-2998 colon): > 100 µM
- TGI (HCT-116 colon): > 100 µM
- TGI (HL-60(TB) leukemia): > 100 µM
- TGI (HS 578T breast): > 100 µM
- TGI (HT29 colon): > 100 µM
- TGI (M14 melanoma): > 100 µM
- TGI (NCI-H460 lung): > 100 µM
- TGI (SK-MEL-28 melanoma): > 100 µM

Structure (SMILES): CCO/C(O)=C(/C(=N)N1CCCC1)C(=O)Nc1cccc(C(F)(F)F)c1
- TGI (BT-549 breast): > 100 µM
- TGI (EKVX NSCLC): > 100 µM
- TGI (HCC-2998 colon): > 100 µM
- TGI (HCT-116 colon): > 100 µM
- TGI (HL-60(TB) leukemia): > 100 µM
- TGI (HS 578T breast): 70.6 µM
- TGI (HT29 colon): > 100 µM
- TGI (M14 melanoma): > 100 µM
- TGI (NCI-H460 lung): > 100 µM
- TGI (SK-MEL-28 melanoma): > 100 µM

Structure (SMILES): COc1cc(C2S/C(=C/c3ccccc3)C(=O)N2c2ccc(Cl)c(Cl)c2)cc(OC)c1OC (stereo not drawn)
- TGI (BT-549 breast): > 100 µM
- TGI (EKVX NSCLC): > 100 µM
- TGI (HCC-2998 colon): > 100 µM
- TGI (HCT-116 colon): > 78.9 µM
- TGI (HL-60(TB) leukemia): > 100 µM
- TGI (HS 578T breast): > 91.5 µM
- TGI (HT29 colon): > 100 µM
- TGI (M14 melanoma): > 100 µM
- TGI (NCI-H460 lung): > 100 µM
- TGI (SK-MEL-28 melanoma): > 100 µM

Structure (SMILES): CSc1c(C#N)c2n(c3ccccc13)c1ccccc1[n+]2C
- TGI (BT-549 breast): 74.3 µM
- TGI (EKVX NSCLC): 56.9 µM
- TGI (HCC-2998 colon): 64.8 µM
- TGI (HCT-116 colon): 40.8 µM
- TGI (HL-60(TB) leukemia): 56.9 µM
- TGI (HS 578T breast): > 100 µM
- TGI (HT29 colon): 46.2 µM
- TGI (M14 melanoma): > 100 µM
- TGI (NCI-H460 lung): > 100 µM
- TGI (SK-MEL-28 melanoma): > 100 µM

Structure (SMILES): NNC(=S)N1CCN(C(=S)NN)CC1
- TGI (BT-549 breast): > 100 µM
- TGI (EKVX NSCLC): > 100 µM
- TGI (HCC-2998 colon): > 100 µM
- TGI (HCT-116 colon): > 100 µM
- TGI (HL-60(TB) leukemia): > 100 µM
- TGI (HS 578T breast): > 100 µM
- TGI (HT29 colon): > 100 µM
- TGI (M14 melanoma): > 100 µM
- TGI (NCI-H460 lung): > 100 µM
- TGI (SK-MEL-28 melanoma): > 100 µM

Structure (SMILES): [N-]=[N+]=Nc1ccc(CNc2cc(=O)[nH]c(=O)[nH]2)cc1
- TGI (BT-549 breast): > 100 µM
- TGI (EKVX NSCLC): > 100 µM
- TGI (HCC-2998 colon): > 100 µM
- TGI (HCT-116 colon): > 100 µM
- TGI (HL-60(TB) leukemia): > 100 µM
- TGI (HS 578T breast): > 100 µM
- TGI (HT29 colon): > 100 µM
- TGI (M14 melanoma): > 100 µM
- TGI (NCI-H460 lung): > 100 µM
- TGI (SK-MEL-28 melanoma): 99.6 µM

Structure (SMILES): CC(=O)N1CCN(C23OC4(N5CCN(C(C)=O)CC5)C5C6CC(C7C6C4C72)C53)CC1 (stereo not drawn)
- TGI (BT-549 breast): > 100 µM
- TGI (EKVX NSCLC): > 100 µM
- TGI (HCC-2998 colon): > 100 µM
- TGI (HCT-116 colon): > 100 µM
- TGI (HL-60(TB) leukemia): > 100 µM
- TGI (HS 578T breast): > 100 µM
- TGI (HT29 colon): > 100 µM
- TGI (M14 melanoma): > 100 µM
- TGI (NCI-H460 lung): > 100 µM

Structure (SMILES): CN(C)CCNc1ncnc2nc(-c3ccc4ccccc4c3)[nH]c12
- TGI (BT-549 breast): > 100 µM
- TGI (EKVX NSCLC): > 100 µM
- TGI (HCC-2998 colon): > 100 µM
- TGI (HCT-116 colon): > 100 µM
- TGI (HL-60(TB) leukemia): > 100 µM
- TGI (HS 578T breast): > 100 µM
- TGI (HT29 colon): > 100 µM
- TGI (M14 melanoma): > 100 µM
- TGI (NCI-H460 lung): > 100 µM
- TGI (SK-MEL-28 melanoma): > 100 µM

Structure (SMILES): CC(=Nc1ccncc1)C(C)=Nc1ccncc1
- TGI (BT-549 breast): 42.3 µM
- TGI (EKVX NSCLC): 48.7 µM
- TGI (HCC-2998 colon): 47.9 µM
- TGI (HCT-116 colon): 83.9 µM
- TGI (HL-60(TB) leukemia): 87.2 µM
- TGI (HS 578T breast): 98.9 µM
- TGI (HT29 colon): 38.2 µM
- TGI (M14 melanoma): 34.8 µM
- TGI (NCI-H460 lung): > 100 µM
- TGI (SK-MEL-28 melanoma): > 100 µM

Structure (SMILES): O=C1C(Br)=C(c2ccccc2)S(=O)c2ccccc21 (stereo not drawn)
- TGI (BT-549 breast): 32.1 µM
- TGI (EKVX NSCLC): 33.9 µM
- TGI (HCC-2998 colon): 27.9 µM
- TGI (HCT-116 colon): 20.4 µM
- TGI (HL-60(TB) leukemia): 6.63 µM
- TGI (HS 578T breast): 80.6 µM
- TGI (HT29 colon): 63.5 µM
- TGI (M14 melanoma): 27 µM
- TGI (NCI-H460 lung): 40.6 µM
- TGI (SK-MEL-28 melanoma): 42.1 µM

Structure (SMILES): Cn1nc(S(N)(=O)=O)s/c1=N/C(N)=S
- TGI (BT-549 breast): > 100 µM
- TGI (EKVX NSCLC): > 100 µM
- TGI (HCC-2998 colon): > 100 µM
- TGI (HCT-116 colon): > 100 µM
- TGI (HL-60(TB) leukemia): > 100 µM
- TGI (HS 578T breast): > 100 µM
- TGI (HT29 colon): > 100 µM
- TGI (M14 melanoma): > 100 µM
- TGI (NCI-H460 lung): > 100 µM
- TGI (SK-MEL-28 melanoma): > 100 µM

Structure (SMILES): CC(C)OP(=O)(OC(C)C)C(C(C)C)N(C)/C(F)=N/C(F)(F)F (stereo not drawn)
- TGI (BT-549 breast): > 100 µM
- TGI (EKVX NSCLC): > 100 µM
- TGI (HCC-2998 colon): > 100 µM
- TGI (HCT-116 colon): > 100 µM
- TGI (HL-60(TB) leukemia): > 100 µM
- TGI (HS 578T breast): > 100 µM
- TGI (HT29 colon): > 100 µM
- TGI (M14 melanoma): > 100 µM
- TGI (NCI-H460 lung): > 100 µM
- TGI (SK-MEL-28 melanoma): > 100 µM

Structure (SMILES): O=C1c2cccc3cccc(c23)C(=O)N1CCCNOCCONCCCN1C(=O)c2cccc3cccc(c23)C1=O
- TGI (BT-549 breast): > 100 µM
- TGI (EKVX NSCLC): > 100 µM
- TGI (HCC-2998 colon): > 100 µM
- TGI (HCT-116 colon): > 100 µM
- TGI (HL-60(TB) leukemia): > 100 µM
- TGI (HS 578T breast): > 100 µM
- TGI (HT29 colon): > 100 µM
- TGI (M14 melanoma): > 100 µM
- TGI (NCI-H460 lung): > 100 µM
- TGI (SK-MEL-28 melanoma): > 100 µM

Structure (SMILES): O=C(NCCCNCCNC(=O)c1cc(-c2ccccc2)nc2ccccc12)c1cc(-c2ccccc2)nc2ccccc12
- TGI (BT-549 breast): 29.4 µM
- TGI (EKVX NSCLC): 5.2 µM
- TGI (HCC-2998 colon): 3.11 µM
- TGI (HCT-116 colon): 3.04 µM
- TGI (HL-60(TB) leukemia): 4.3 µM
- TGI (HS 578T breast): 4.5 µM
- TGI (HT29 colon): 2.91 µM
- TGI (M14 melanoma): 3.95 µM
- TGI (NCI-H460 lung): 3.31 µM
- TGI (SK-MEL-28 melanoma): 3.26 µM

Structure (SMILES): Cc1c(NC2(C)C(=O)N(/N=C/c3ccccc3)N=C2c2ccccc2)n[nH]c1-c1ccccc1 (stereo not drawn)
- TGI (BT-549 breast): > 100 µM
- TGI (EKVX NSCLC): > 100 µM
- TGI (HCC-2998 colon): > 100 µM
- TGI (HCT-116 colon): > 100 µM
- TGI (HL-60(TB) leukemia): > 100 µM
- TGI (HS 578T breast): > 100 µM
- TGI (HT29 colon): > 100 µM
- TGI (M14 melanoma): > 100 µM
- TGI (NCI-H460 lung): > 100 µM
- TGI (SK-MEL-28 melanoma): > 100 µM

Structure (SMILES): Cc1ccc(-c2n[nH]c(=O)[nH]2)cc1[N+](=O)[O-]
- TGI (BT-549 breast): > 100 µM
- TGI (EKVX NSCLC): > 100 µM
- TGI (HCC-2998 colon): > 100 µM
- TGI (HCT-116 colon): > 100 µM
- TGI (HL-60(TB) leukemia): > 100 µM
- TGI (HS 578T breast): > 100 µM
- TGI (HT29 colon): > 100 µM
- TGI (M14 melanoma): > 100 µM
- TGI (NCI-H460 lung): > 100 µM
- TGI (SK-MEL-28 melanoma): > 100 µM

Structure (SMILES): C=C(C)C1CC=C(C)C2(C1)OCC(C)(C)C(C)O2 (stereo not drawn)
- TGI (BT-549 breast): 36 µM
- TGI (EKVX NSCLC): 62.3 µM
- TGI (HCC-2998 colon): 93.2 µM
- TGI (HCT-116 colon): 31.1 µM
- TGI (HL-60(TB) leukemia): 35.5 µM
- TGI (HS 578T breast): > 100 µM
- TGI (HT29 colon): 33.2 µM
- TGI (M14 melanoma): 47.1 µM
- TGI (NCI-H460 lung): > 100 µM
- TGI (SK-MEL-28 melanoma): 63.9 µM

Structure (SMILES): O=c1[nH]c(Nc2cccc(Cl)c2)nc2nc[nH]c12
- TGI (BT-549 breast): > 100 µM
- TGI (EKVX NSCLC): > 100 µM
- TGI (HCC-2998 colon): > 100 µM
- TGI (HCT-116 colon): > 100 µM
- TGI (HL-60(TB) leukemia): > 100 µM
- TGI (HS 578T breast): > 100 µM
- TGI (HT29 colon): > 100 µM
- TGI (M14 melanoma): > 100 µM
- TGI (NCI-H460 lung): > 100 µM
